Data reported in patent US9359389B2, “Caged ceramide-1-phosphate derivatives” (RESEARCH FOUNDATION OF THE CITY UNIVERSITY OF NEW YORK, priority 2009, dated 2016).
“Also recorded” adds a separate entry of the source.

Tests used:
[1] = Qualitative measurement of uncaging efficiency (photolysis at 365 nm, TLC); type: physicochemical; conditions: 100 μM in 50% aqueous EtOH, 50% 10 mM Tris, pH 7.4, 365 nm UV lamp at 1 cm
Procedure: Qualitative Measurement of Uncaging Efficiency. A 100 μM solution of S1P 1 in 50% aqueous EtOH and 50% 10 mM Tris, pH 7.4, was placed in a quartz cuvette and placed at a distance of 1 cm from a conventional UV lamp (Entela UVGL-25 UV lamp). The compound was irradiated using long wavelength (365 nm) and, after a certain time, as indicated in the TLC, an aliquot was applied to a TLC plate, which was developed with CHCl3/MeOH 3:1. Photodecomposition of 100% DECM-caged 1P 1 took place around 60 min.
Qualitative Measurement of Uncaging Efficiency. A 100 μM solution of BHNB-caged S1P (2) in 50% aqueous EtOH and 50% 10 mM Tris, pH 7.4, was placed in a quartz cuvette and irradiated at 365 nm at a distance of 1 cm with a conventional UV lamp (Entela UVGL-25 UV lamp). Aliquots were withdrawn at various times and analyzed by TLC (developed using CHCl3/MeOH 2:1). The mechanism of photolysis of 2-nitrobenzyl caged compounds has been thoroughly studied and is known to generate 2-nitrosobenzaldehyde as the photo by-product of the reaction.^S1 Similarly, our BHNB uncaging experiment is expected to generate a 2-nitrosobenzophenone derivative as the byproduct (Formula 20). […] 100% photodecomposition of […]-S1P (2) took place after 65 min.

primary BMDM cells = test: Cell growth and proliferation assay (MTS) in primary bone marrow-derived macrophages; type: cell-based, CD-1 mice; conditions: for concentration at which cell division was stimulated (MTS assay) on exposure of the cells to light: primary BMDM, compound in EtOH
Procedure: The cells were incubated with 1.5% MCSF for 24 hr.
Compounds 1a and 2a stimulated cell division, as determined by the MTS assay, at 2.5 and 1.0 μM, respectively, on exposure of the cells to light.
Cell Growth and Proliferation Assays. RAW 264.7 cells were obtained from the American Type Culture Collection (Rockville, Md.). BMDMs were isolated from femurs of 6- to 8-week old female CD-1 mice from Charles River Laboratory as described previously.^S2 The cells were cultured as described previously. Cell growth was estimated by measuring the rate of reduction of the tetrazolium dye MTS, (3-(4,5-dimethylthiazol-2-yl)-5-(3-carboxymethoxy-phenol)-2-(4-sulfophenyl)-2H-tetrazolium). […] Photolysis of 2.5 μM of compound 1a (delivered to RAW 264.7 cells in EtOH) was equipotent as exogenous 30 μM C1P.

RAW 264.7 cells = test: Cell growth and proliferation assay (MTS) in RAW 264.7 macrophages; conditions: for cell growth on delivery into RAW 264.7 macrophages: FIG. 3A, 400-500 nm light in a transilluminator; for concentration at which cell division was stimulated (MTS assay) on exposure of the cells to light: RAW264.7, compound in EtOH, 400-500 nm light; for growth stimulation in the dark: cells incubated in the dark with the compounds; for concentration for stimulation of macrophage proliferation compared with exogenous C1P: macrophages (RAW 264.7 and BMDM), after photorelease
Procedure: Cell Growth and Proliferation Assays. RAW 264.7 cells were obtained from the American Type Culture Collection (Rockville, Md.). […] Cell growth was estimated by measuring the rate of reduction of the tetrazolium dye MTS, (3-(4,5-dimethylthiazol-2-yl)-5-(3-carboxymethoxy-phenol)-2-(4-sulfophenyl)-2H-tetrazolium).
The cells were exposed to 400-500 nm light in a transilluminator equipped with a 9W lamp for 60 min at a distance of 1.5 cm at 37° C.

| Compound | time to 100% photodecomposition [1] | concentration at which cell division was stimulated (MTS assay) on exposure of the cells to light (primary BMDM cells) | cell growth on delivery into RAW 264.7 macrophages (RAW 264.7 cells) | concentration at which cell division was stimulated (MTS assay) on exposure of the cells to light (RAW 264.7 cells) | growth stimulation in the dark (RAW 264.7 cells) | concentration for stimulation of macrophage proliferation compared with exogenous C1P (RAW 264.7 cells) | other results |
| --- | --- | --- | --- | --- | --- | --- | --- |
| CCCCCCCCCCCCC/C=C/[C@@H](O)[C@@H](N)COP(=O)(O)OC(c1ccccc1)c1cc(O)c(Br)cc1[N+](=O)[O-] (stereo partly drawn) [Compound 2, (2S,3R,4E)-2-Amino-3-hydroxyoctadec-4-enyl-(4′-bromo-5′-hydroxy-2′-nitrophenyl)(phenyl)methyl Hydrogen Phosphate] | 65 min |  |  |  |  |  |  |
| CCCCCCCCCCCCC/C=C/[C@@H](O)[C@@H](N)COP(=O)(O)OCc1cc(=O)oc2cc(N(CC)CC)ccc12 [Compound 1, (2S,3R,4E)-2-Amino-3-hydroxyoctadec-4-enyl (7-(Diethylamino)coumarin-4-yl) -methyl Phosphate] | around 60 min |  |  |  |  |  |  |
| CCCCCCCCCCCCC/C=C/[C@@H](O)[C@H](COP(=O)(O)O)NC(=O)CCCCCCCCCCCCCCC [N-palmitoyl-C1P, reference compound] |  |  |  |  |  |  | optimum concentration for stimulation of cell growth (primary BMDM cells; BMDM, aqueous dispersion, exogenous addition): 50 µM; optimum concentration for stimulation of cell growth (RAW 264.7 cells; RAW 264.7, aqueous dispersion, exogenous addition): 30 µM; effect on cell growth at concentrations higher than 30 μM (RAW 264.7 cells; RAW 264.7, exogenous aqueous dispersion): growth inhibitory |
| CCCCCCCCCCCCC/C=C/[C@@H](O)[C@H](COP(=O)(O)OC(c1ccccc1)c1cc(O)c(Br)cc1[N+](=O)[O-])NC(=O)CCCCCCCCCCCCCCC (stereo partly drawn) [Compound 2a, (4′-Bromo-5′-hydroxy-2′-nitrophenyl)(phenyl)methyl-(2S,3R,4E)-3-hydroxy-2-palmitamidooctadee-4-enyl Hydrogen Phosphate] |  | 1.0 µM | stimulates cell growth | 1.0 µM | No growth stimulation | significantly lower concentrations than exogenous C1P |  |
| CCCCCCCCCCCCC/C=C/[C@@H](O)[C@H](COP(=O)(O)OCc1cc(=O)oc2cc(N(CC)CC)ccc12)NC(=O)CCCCCCCCCCCCCCC [Compound 1a, (2S,3R,4E)-2-Palmitamido-3-hydroxyoctadec-4-enyl (7-Diethylaminocoumarin-4-yl)methyl Phosphate] |  | 2.5 µM | stimulates cell growth | 2.5 µM | No growth stimulation | significantly lower concentrations than exogenous C1P | potency of growth stimulation compared with exogenous C1P at 30 μM (RAW 264.7 cells; RAW 264.7, 2.5 μM in EtOH, photolysis): as potent as exogenous C1P; also recorded: equipotent |
